Source: ChEMBL document CHEMBL1123640, “Synthesis and antiviral activity of carbocyclic analogues of xylofuranosides of 2-amino-6-substituted-purines and 2-amino-6-substituted-8-azapurines” (1987)
≈ marks a conversion by molar mass, not a printed value.

Experiments:
Assay type in all cases: functional
Homo sapiens [1] = species: Homo sapiens; assay: Antiviral activity against Varicella-Zoster virus (VV) in human foreskin cell cultures in virus plaque reduction assay at 3.2 uM
Homo sapiens [2] = species: Homo sapiens; assay: Cytotoxicity was determined at 1000 uM
Homo sapiens [3] = species: Homo sapiens; assay: Antiviral activity against Varicella-Zoster virus (VV) in human foreskin cell cultures in virus plaque reduction assay at 100 uM
Homo sapiens [4] = species: Homo sapiens; assay: Antiviral activity against Varicella-Zoster virus (VV) in human foreskin cell cultures in virus plaque reduction assay at 10 uM
Homo sapiens [5] = species: Homo sapiens; assay: Antiviral activity against Varicella-Zoster virus (VV) in human foreskin cell cultures in virus plaque reduction assay at 32 uM
Homo sapiens [6] = species: Homo sapiens; assay: Cytotoxicity was determined at 100 uM
Homo sapiens [7] = species: Homo sapiens; assay: Antiviral activity against Varicella-Zoster virus (VV) in human foreskin cell cultures in virus plaque reduction assay at 1000 uM
Homo sapiens [8] = species: Homo sapiens; assay: Cytotoxicity was determined at 320 uM
Homo sapiens [9] = species: Homo sapiens; assay: Cytotoxicity was determined at 32 uM
Homo sapiens [10] = species: Homo sapiens; assay: Antiviral activity against Varicella-Zoster virus (VV) in human foreskin cell cultures in virus plaque reduction assay at 320 uM
Homo sapiens [11] = species: Homo sapiens; assay: Antiviral activity against Varicella-Zoster virus (VV) in human foreskin cell cultures in virus plaque reduction assay at 1 uM
Human alphaherpesvirus 1 [12] = assay: The compound was tested in vitro for anti viral activity against Herpes simplex virus type 1 (strain 377)
P388 = assay: Tested for inhibitory activity against P-388 leukemia cells; conditions: Mus musculus, read-out: ED50 (the source's name)
Human alphaherpesvirus 1 [13] = assay: Minimum inhibitory concentration required to inhibit Herpes simplex virus type 1 (strain 377) induced cytopathogenic effects by 50%.
Human alphaherpesvirus 2 [14] = assay: The compound was tested in vitro for anti viral activity against Herpes simplex virus type 2 (strain MS)
Human alphaherpesvirus 2 [15] = assay: Minimum inhibitory concentration required to inhibit Herpes simplex virus type 2 (strain MS) induced cytopathogenic effects by 50%.
Human alphaherpesvirus 2 [16] = assay: The compound was tested in vitro for definite and significant anti viral activity against Herpes simplex virus type 2 (strain MS) (experiment 1); value indicates definite and significant antiviral activity
Human alphaherpesvirus 1 [17] = assay: The compound was tested in vitro for definite and significant anti viral activity against Herpes simplex virus type 1 (strain 377) (experiment 2); value indicates definite and significant antiviral activity
Human alphaherpesvirus 1 [18] = assay: Minimum inhibitory concentration required to inhibit Herpes simplex virus type 1 (strain 377) induced cytopathogenic effects by 50%. (experiment 1)
Human alphaherpesvirus 1 [19] = assay: The compound was tested in vitro for definite and significant anti viral activity against Herpes simplex virus type 1 (strain 377) (experiment 1); value indicates definite and significant antiviral activity
Human alphaherpesvirus 2 [20] = assay: The compound was tested in vitro for definite and significant anti viral activity against Herpes simplex virus type 2 (strain MS) (experiment 2); value indicates definite and significant antiviral activity
Human alphaherpesvirus 2 [21] = assay: Minimum inhibitory concentration required to inhibit Herpes simplex virus type 2 (strain MS) induced cytopathogenic effects by 50%. (experiment 2); conditions: Human alphaherpesvirus 2, MS
Human alphaherpesvirus 1 [22] = assay: Minimum inhibitory concentration required to inhibit Herpes simplex virus type 1 (strain 377) induced cytopathogenic effects by 50%. (experiment 2)
Human alphaherpesvirus 2 [23] = assay: Minimum inhibitory concentration required to inhibit Herpes simplex virus type 2 (strain MS) induced cytopathogenic effects by 50%. (experiment 1); conditions: Human alphaherpesvirus 2, MS

| SMILES | Reduction (Homo sapiens [1]) [%] | Reduction (Homo sapiens [3]) [%] | Reduction (Homo sapiens [4]) [%] | Reduction (Homo sapiens [5]) [%] | Cytotoxicity (Homo sapiens [6]) | Reduction (Homo sapiens [7]) [%] | Cytotoxicity (Homo sapiens [8]) | Cytotoxicity (Homo sapiens [9]) | Reduction (Homo sapiens [10]) [%] | Virus rating (Human alphaherpesvirus 1 [12]) | EC50 (P388) [µM] | MIC50 (Human alphaherpesvirus 1 [13]) [µg/mL] | other results |
| --- | --- | --- | --- | --- | --- | --- | --- | --- | --- | --- | --- | --- | --- |
| Nc1nc2c(ncn2COC(CO)CO)c(=O)[nH]1 [GANCICLOVIR] | 24 | 82 | 35 | 56 | 0 | 97 | 0 | 0 | 97 | – | – | – | Reduction (Homo sapiens [2]): 0 |
| Nc1nc2c(ncn2COCCO)c(=O)[nH]1 [ACYCLOVIR] | 32 | 94 | 41 | 79 | 0 | 100 | 0 | 0 | 100 | – | – | – | Cytotoxicity (Homo sapiens [2]): 0; Reduction (Homo sapiens [11]): 35% |
| Nc1nc(Cl)c2ncn(C3CC(CO)C(O)C3O)c2n1 (centres undefined) | – | – | – | – | – | – | – | – | – | 1.8 | 220 | 100 (≈ 334 µM) | – |
| Nc1ncnc2c1ncn2[C@@H]1O[C@H](CO)[C@@H](O)[C@@H]1O [VIDARABINE] | 18 | 97 | 44 | 97 | 0 | – | – | 0 | 100 | 3.1 | – | 9.8 (≈ 36.7 µM) | Virus rating (Human alphaherpesvirus 2 [14]): 2.3; MIC50 (Human alphaherpesvirus 2 [15]): 30 µg/mL (≈ 112 µM) |
| Nc1nc(O)c2nnn(C3CC(CO)C(O)C3O)c2n1 (centres undefined) | – | – | – | – | – | – | – | – | – | – | 1.6 | – | Virus rating (Human alphaherpesvirus 2 [16]): 1.3; Virus rating (Human alphaherpesvirus 1 [17]): 2.5; MIC50 (Human alphaherpesvirus 1 [18]): 60.8 µg/mL (≈ 215 µM); Virus rating (Human alphaherpesvirus 1 [19]): 2.4; Virus rating (Human alphaherpesvirus 2 [20]): 1.1; MIC50 (Human alphaherpesvirus 2 [21]): 240 µg/mL (≈ 852 µM); MIC50 (Human alphaherpesvirus 1 [22]): 93.1 µg/mL (≈ 330 µM); MIC50 (Human alphaherpesvirus 2 [23]): 92.2 µg/mL (≈ 327 µM) |
